In patent US12071425B2 (Genentech, Inc., priority 2018, dated 2024):
Where a name gives a salt, the structure may show the parent alone.

Biological target: kinase domain of IRE1 alpha (His-tagged kinase dead construct KR, AA G547-L977, D688N) (Homo sapiens (Human), UniProt O75460, D688N)
Assay: IRE1α TR-FRET competition binding assay
Conditions: competition with Kinase Tracer 236, 0.1 μM; one hour at room temperature
Description: To determine the affinity of compound binding to the kinase domain of IRE1 alpha, a Time Resolved Fluorescence Resonance Energy Transfer (TR-FRET) competition assay was used. A His-tagged IRE1 alpha kinase dead construct containing the kinase and RNase domains (KR, AA G547-L977, D688N) was expressed in Sf9 insect cells. The purified protein (final concentration 0.006 μM micromolar) was pre-incubated with anti-His Europium labeled antibody (Life Technologies PV5596, final concentration 0.002 μM micromolar) for one hour at 4° C. in 1X TR-FRET Assay Buffer (50 mM HEPES, pH 7.5.10 mM MgCl2, 0.083 mM Brij 35, 1 mM DTT, and 0.1% bovine gamma globulin) prior to addition to test compounds. A fluorescent labeled probe based on an ATP competitive inhibitor (Kinase Tracer 236, Life Technologies PV5592) is added to a final concentration of 0.1 μM (micromolar). Reactions were carried out for one hour at room temperature in a final volume of 20 μL (microliter) in 384 well white ProxiPlates (Perkin Elmer 6008289). Binding of the tracer to the IRE1 protein alpha was detected in an Envision instrument (PerkinElmer) equipped with a TRF laser option and a LANCE/Delfia Dual/Bias D400/D630 mirror (Ex 347 nm, 1st Em 665 nm, 2nd Em 615 nm).
Exemplary compounds in Table A1 were tested in the IRE1α binding assays.

Chain of kinase domain of IRE1 alpha (His-tagged kinase dead construct KR, AA G547-L977, D688N) (O75460 547-977 D688N): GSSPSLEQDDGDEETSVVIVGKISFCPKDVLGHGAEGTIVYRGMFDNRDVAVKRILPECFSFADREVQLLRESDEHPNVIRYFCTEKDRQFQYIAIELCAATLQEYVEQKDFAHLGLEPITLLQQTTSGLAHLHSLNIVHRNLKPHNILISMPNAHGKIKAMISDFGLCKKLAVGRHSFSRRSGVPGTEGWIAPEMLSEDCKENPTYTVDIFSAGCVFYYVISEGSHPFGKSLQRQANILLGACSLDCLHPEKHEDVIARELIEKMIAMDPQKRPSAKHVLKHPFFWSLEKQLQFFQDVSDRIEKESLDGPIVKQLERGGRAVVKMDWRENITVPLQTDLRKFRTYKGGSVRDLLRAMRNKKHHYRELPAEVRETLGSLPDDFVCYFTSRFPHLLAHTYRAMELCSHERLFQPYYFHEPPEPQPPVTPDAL

IC50 | SMILES
0.16 nM | CC(F)C1CNCC(Nc2nccc(-c3cccnc3Oc3cc(F)c(NS(=O)(=O)Cc4ccccc4)c(F)c3F)n2)C1 (single isomer, unassigned) [Compound 342, 1-Phenyl-N-(2,3,6-trifluoro-4-((3-(2-((5-(1-fluoroethyl)piperidin-3-yl)amino)pyrimidin-4-yl)pyridin-2-yl)oxy)phenyl)methanesulfonamide hydrochloride]
0.78 nM | CC(F)C1CNCC(Nc2nccc(-c3cccnc3Oc3cc(F)c(NS(=O)(=O)Cc4ccccc4)c(F)c3F)n2)C1 (single isomer, unassigned) [Compound 343, 1-Phenyl-N-(2,3,6-trifluoro-4-((3-(2-((5-(1-fluoroethyl)piperidin-3-yl)amino)pyrimidin-4-yl)pyridin-2-yl)oxy)phenyl)methanesulfonamide hydrochloride]
19 nM | CC(F)C1CNCC(Nc2nccc(-c3cccnc3Oc3cc(F)c(NS(=O)(=O)Cc4ccccc4)c(F)c3F)n2)C1 (single isomer, unassigned) [Compound 344, 1-Phenyl-N-(2,3,6-trifluoro-4-((3-(2-((5-(1-fluoroethyl)piperidin-3-yl)amino)pyrimidin-4-yl)pyridin-2-yl)oxy)phenyl)methanesulfonamide hydrochloride]
0.17 nM | CC(F)C1CNCC(Nc2nccc(-c3cccnc3Oc3cc(F)c(NS(=O)(=O)Cc4ccccc4)c(F)c3F)n2)C1 (single isomer, unassigned) [Compound 345, 1-Phenyl-N-(2,3,6-trifluoro-4-((3-(2-((5-(1-fluoroethyl)piperidin-3-yl)amino)pyrimidin-4-yl)pyridin-2-yl)oxy)phenyl)methanesulfonamide hydrochloride]
72 nM | CC(F)C1CNCC(Nc2nccc(-c3cccnc3Oc3cc(F)c(NS(=O)(=O)Cc4ccccc4)c(F)c3F)n2)C1 (single isomer, unassigned) [Compound 346, 1-Phenyl-N-(2,3,6-trifluoro-4-((3-(2-((5-(1-fluoroethyl)piperidin-3-yl)amino)pyrimidin-4-yl)pyridin-2-yl)oxy)phenyl)methanesulfonamide]
49 nM | CC(F)C1CNCC(Nc2nccc(-c3cccnc3Oc3cc(F)c(NS(=O)(=O)Cc4ccccc4)c(F)c3F)n2)C1 (single isomer, unassigned) [Compound 347, 1-Phenyl-N-(2,3,6-trifluoro-4-((3-(2-((5-(1-fluoroethyl)piperidin-3-yl)amino)pyrimidin-4-yl)pyridin-2-yl)oxy)phenyl)methanesulfonamide]
0.2 nM | CC(F)C1CNCC(Nc2nccc(-c3cccnc3Oc3cc(F)c(NS(=O)(=O)Cc4ccccc4)c(F)c3F)n2)C1 (single isomer, unassigned) [Compound 348, 1-Phenyl-N-(2,3,6-trifluoro-4-((3-(2-((5-(1-fluoroethyl)piperidin-3-yl)amino)pyrimidin-4-yl)pyridin-2-yl)oxy)phenyl)methanesulfonamide]
0.2 nM | C[C@@H](c1ccccc1)S(=O)(=O)Nc1c(F)cc(Oc2ncccc2-c2ccnc(N[C@@H]3CNC[C@@H](F)C3)n2)c(F)c1F (single isomer, unassigned) [Compound 387, (*S)-1-Phenyl-N-(2,3,6-trifluoro-4-((3-(2-(((3S,5S)-5-fluoropiperidin-3-yl)amino)pyrimidin-4-yl)pyridin-2-yl)oxy)phenyl)ethane-1-sulfonamide]
0.8 nM | C[C@H](c1ccccc1)S(=O)(=O)Nc1c(F)cc(Oc2ncccc2-c2ccnc(N[C@@H]3CNC[C@@H](F)C3)n2)c(F)c1F (single isomer, unassigned) [Compound 388, (*R)-1-phenyl-N-(2,3,6-trifluoro-4-((3-(2-(((3S,5S)-5-fluoropiperidin-3-yl)amino)pyrimidin-4-yl)pyridin-2-yl)oxy)phenyl)ethane-1-sulfonamide]
0.35 nM | O=S(=O)(Cc1ccc(F)cc1)Nc1c(F)cc(Oc2ncccc2-c2ccnc(N[C@@H]3CNCC(CF)C3)n2)c(F)c1F (stereo in doubt) [Compound 316, 1-(4-Fluorophenyl)-N-(2,3,6-trifluoro-4-((3-(2-(((3S,5S)-5-(fluoromethyl)piperidin-3-yl)amino)pyrimidin-4-yl)pyridin-2-yl)oxy)phenyl)methanesulfonamide]
13 nM | Cc1cc(NS(=O)(=O)c2ccccc2Cl)ccc1Oc1ncccc1-c1ccnc(N[C@H]2CC[C@H](N)CC2)n1 [Compound 101, N-[4-[[3-[2-[(4-aminocyclohexyl)amino]pyrimidin-4-yl]-2-pyridyl]oxy]-3-methyl-phenyl]-2-chloro-benzenesulfonamide hydrochloride]
10 nM | Cc1cc(NS(=O)(=O)c2ccccc2Cl)cc(F)c1Oc1ncccc1-c1ccnc(N[C@H]2CC[C@H](N)CC2)n1 [Compound 102, N-[4-[[3-[2-[(4-aminocyclohexyl)amino]pyrimidin-4-yl]-2-pyridyl]oxy]-3-fluoro-5-methyl-phenyl]-2-chloro-benzenesulfonamide hydrochloride]
30 nM | Cc1ccc(C(=O)NS(=O)(=O)c2ccccc2Cl)cc1Oc1ncccc1-c1ccnc(N[C@H]2CCCNC2)n1 [Compound 103, (S)-N-((2-chlorophenyl)sulfonyl)-4-methyl-3-((3-(2-(piperidin-3-ylamino)pyrimidin-4-yl)pyridin-2-yl)oxy)benzamide]
5.9 nM | N[C@H]1CC[C@H](Nc2nccc(-c3cccnc3Oc3c(F)cc(NS(=O)(=O)c4ccccc4Cl)cc3Cl)n2)CC1 [Compound 104, N-[4-[[3-[2-[(4-aminocyclohexyl)amino]pyrimidin-4-yl]-2-pyridyl]oxy]-3-chloro-5-fluoro-phenyl]-2-chloro-benzenesulfonamide hydrochloride]
27 nM | O=S(=O)(CCC(F)(F)F)Nc1ccc(Oc2ncccc2-c2ccnc(N[C@H]3CCCNC3)n2)cc1F [Compound 105, (S)-3,3,3-trifluoro-N-(2-fluoro-4-((3-(2-(piperidin-3-ylamino)pyrimidin-4-yl)pyridin-2-yl)oxy)phenyl)propane-1-sulfonamide hydrochloride]
5.7 nM | O=S(=O)(Cc1ccccc1)Nc1ccc(Oc2ncccc2-c2ccnc(N[C@H]3CCCNC3)n2)cc1F [Compound 106, (S)-N-(2-fluoro-4-((3-(2-(piperidin-3-ylamino)pyrimidin-4-yl)pyridin-2-yl)oxy)phenyl)-1-phenylmethanesulfonamide hydrochloride]
5.2 nM | O=S(=O)(Cc1ccccc1)Nc1cc(F)c(Oc2ncccc2-c2ccnc(N[C@H]3CCCNC3)n2)cc1F [Compound 107, (S)-N-(2,5-difluoro-4-((3-(2-(piperidin-3-ylamino)pyrimidin-4-yl)pyridin-2-yl)oxy)phenyl)-1-phenylmethanesulfonamide hydrochloride]
3.4 nM | O=S(=O)(Cc1ccccc1)Nc1ccc(Oc2ncccc2-c2ccnc(N[C@H]3CCCNC3)n2)c(F)c1F [Compound 108, (S)-N-(2,3-difluoro-4-((3-(2-(piperidin-3-ylamino)pyrimidin-4-yl)pyridin-2-yl)oxy)phenyl)-1-phenylmethanesulfonamide hydrochloride]
26 nM | O=S(=O)(CCC(F)(F)F)Nc1cc(F)c(Oc2ncccc2-c2ccnc(N[C@H]3CCCNC3)n2)cc1F [Compound 109, (S)-N-(2,5-difluoro-4-((3-(2-(piperidin-3-ylamino)pyrimidin-4-yl)pyridin-2-yl)oxy)phenyl)-3,3,3-trifluoropropane-1-sulfonamide hydrochloride]
